Laboratory results taken from patent publication US20260256940A1, “MITOCHONDRIA AS A TARGETED DELIVERY PLATFORM” (cellvie AG, priority 2022, published 2026).

System: heart of a pig
Conditions: in vivo
Description: Five milliliters of mitochondria-ssDNA suspension (ssDNA is fluorescently labeled with FAM, and the ssDNA oligo sequence 5′ to 3′ is [sequence]) in conjugation buffer (at a concentration of 1 mg/mL) were directly injected into the heart of the pig. After two hours, the pig was sacrificed, and a small piece of heart tissue where the injection had occurred was cut. The tissue was fixed using formaldehyde, and a histology cut was performed. The tissue was stained with DAPI and rhodamine phalloidin (Thermo Fisher Scientific) to visualize cell nuclei and F-actin networks, respectively. The FAM signal represents the ssDNA signal. A control experiment was prepared by directly injecting naked ssDNA.
An in vivo experiment was conducted to understand the stability of the mitochondria-ssDNA complex inside a tissue or organ after injection. Using a syringe, either the mitochondria-ssDNA complex or naked ssDNA (control) were directly injected into the heart of a pig. Two hours post-injection, the tissue was processed and fluorescently stained using DAPI and rhodamine phalloidin to stain cell nuclei and F-actins, respectively. The samples were analyzed using a fluorescence microscope to visualize nuclei, actin and the FAM-labeled ssDNA.

naked ssDNA: FAM-labeled ssDNA, oligo sequence 5′ to 3′ GCAACAGTGAAGGAAAGCC, injected without mitochondria as control (FAM label, chemistry not fully specified; listed 3' to 5')
ssDNA signal in heart tissue: No ssDNA signal was observed
